{
  "source": "ChEMBL document CHEMBL4376834",
  "about": "“Discovery of 4H-Chromen-4-one Derivatives as a New Class of Selective Rho Kinase (ROCK) Inhibitors, which Showed Potent Activity in ex Vivo Diabetic Retinopathy Models” (J Med Chem, 2019)",
  "key": {"[1]": {"molecular_target": "Serine/threonine-protein kinase VRK2 (Homo sapiens, UniProt Q86Y07)", "assay": "Inhibition of recombinant human VRK2 (1 to 336 residues) using casein as substrate incubated for 40 mins in presence of [gamma33P]ATP by radiometric scintillation counting analysis"}, "[2]": {"molecular_target": "Epidermal growth factor receptor (Homo sapiens, UniProt P00533, L858R)", "assay": "Inhibition of recombinant human EGFR L858R mutant (696 to end residues) using poly(Glu, Tyr) 4:1 as substrate after 40 mins in presence of [gamma-33ATP] by radiometric scintillation counting analysis"}, "[3]": {"molecular_target": "Dual specificity tyrosine-phosphorylation-regulated kinase 1A (Homo sapiens, UniProt Q13627)", "assay": "Inhibition of recombinant full length human DYRK1A using RRRFRPASPLRGPP as substrate after 40 mins in presence of [gamma-33ATP] by radiometric scintillation counting analysis"}, "[4]": {"molecular_target": "Rho-associated protein kinase 1 (Homo sapiens, UniProt Q13464)", "assay": "Inhibition of recombinant human ROCK1 (17 to 535 residues) using […] as substrate incubated for 40 mins in presence of [gamma-33P]ATP and 10 uM ATP by radiometric scintillation counting analysis"}, "[5]": {"molecular_target": "Serine/threonine-protein kinase PLK1 (Homo sapiens, UniProt P53350)", "assay": "Inhibition of recombinant full-length human Plk1 using casein as substrate incubated for 40 mins in presence of [gamma33P]ATP by radiometric scintillation counting analysis"}, "Ephrin type-A receptor 7": {"molecular_target": "Ephrin type-A receptor 7 (Homo sapiens, UniProt Q15375)", "sequence (Q15375 whole entry, the tested form may be a part)": "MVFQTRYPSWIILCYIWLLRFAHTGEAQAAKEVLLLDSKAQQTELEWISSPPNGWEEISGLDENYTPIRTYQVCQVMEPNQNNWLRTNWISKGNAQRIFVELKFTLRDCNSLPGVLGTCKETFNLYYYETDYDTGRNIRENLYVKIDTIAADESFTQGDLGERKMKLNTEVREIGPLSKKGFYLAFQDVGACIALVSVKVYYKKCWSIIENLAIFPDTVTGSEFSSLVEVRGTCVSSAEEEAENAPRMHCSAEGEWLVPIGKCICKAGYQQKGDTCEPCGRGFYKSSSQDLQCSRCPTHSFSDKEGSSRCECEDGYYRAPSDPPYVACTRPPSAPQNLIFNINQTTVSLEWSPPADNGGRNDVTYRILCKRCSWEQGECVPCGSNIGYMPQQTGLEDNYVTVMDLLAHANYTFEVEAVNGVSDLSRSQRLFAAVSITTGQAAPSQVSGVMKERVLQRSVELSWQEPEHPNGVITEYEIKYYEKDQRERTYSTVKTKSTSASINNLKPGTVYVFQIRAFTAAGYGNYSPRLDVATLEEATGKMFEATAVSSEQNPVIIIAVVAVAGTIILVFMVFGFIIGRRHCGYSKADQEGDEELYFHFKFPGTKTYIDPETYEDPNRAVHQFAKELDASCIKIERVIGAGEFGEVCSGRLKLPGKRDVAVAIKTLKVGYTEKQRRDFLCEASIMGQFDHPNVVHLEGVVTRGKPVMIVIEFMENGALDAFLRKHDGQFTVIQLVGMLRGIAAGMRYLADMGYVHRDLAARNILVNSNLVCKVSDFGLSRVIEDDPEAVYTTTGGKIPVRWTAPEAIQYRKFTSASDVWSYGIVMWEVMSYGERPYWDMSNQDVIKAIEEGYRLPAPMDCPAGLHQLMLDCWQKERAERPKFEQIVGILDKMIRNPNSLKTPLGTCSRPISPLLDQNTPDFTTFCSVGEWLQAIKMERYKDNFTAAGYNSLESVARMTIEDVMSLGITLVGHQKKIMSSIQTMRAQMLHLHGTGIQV", "assay": "Inhibition of recombinant human EphA7 (613 to 909 residues) using KTFCGTPEYLAPE as substrate measured after 40 mins in presence of [gamma33ATP] by radiometric scintillation counting analysis"}, "[6]": {"molecular_target": "Homeodomain-interacting protein kinase 3 (Homo sapiens, UniProt Q9H422)", "assay": "Inhibition of human recombinant HIPK3 (161 to 562 residues) using myelin basic protein as substrate after 40 mins by [gamma-33ATP] radiometric assay"}, "[7]": {"molecular_target": "Mitogen-activated protein kinase 12 (Homo sapiens, UniProt P53778)", "assay": "Inhibition of recombinant human full length SAPK3 using myelin basic protein as substrate incubated for 40 mins in presence of [gamma33P]ATP by radiometric scintillation counting analysis"}, "[8]": {"molecular_target": "Tyrosine-protein kinase ABL1 (Homo sapiens, UniProt P00519, Y253F)", "assay": "Inhibition of human recombinant ABL1 Y253F mutant (27 to end residues) using EAIYAAPFAKKK as substrate incubated for 40 mins in presence of [gamma-33P]ATP by radiometric scintillation counting analysis"}, "[9]": {"assay": "Intrinsic clearance in rat liver microsomes measured upto 45 mins in presence of NADPH by LC-MS analysis", "format": "ADME, Microsome", "details": "read-out: CLH"}, "[10]": {"molecular_target": "Tyrosine-protein kinase JAK2 (Homo sapiens, UniProt O60674)", "assay": "Inhibition of human recombinant JAK2 (808 to end residues) using KTFCGTPEYLAPE as substrate after 40 mins by [gamma-33ATP] by radiometric scintillation counting analysis"}, "[11]": {"molecular_target": "Serine/threonine-protein kinase B-raf (Homo sapiens, UniProt P15056, V600E)", "sequence (P15056 2-766 V600E limits assumed)": "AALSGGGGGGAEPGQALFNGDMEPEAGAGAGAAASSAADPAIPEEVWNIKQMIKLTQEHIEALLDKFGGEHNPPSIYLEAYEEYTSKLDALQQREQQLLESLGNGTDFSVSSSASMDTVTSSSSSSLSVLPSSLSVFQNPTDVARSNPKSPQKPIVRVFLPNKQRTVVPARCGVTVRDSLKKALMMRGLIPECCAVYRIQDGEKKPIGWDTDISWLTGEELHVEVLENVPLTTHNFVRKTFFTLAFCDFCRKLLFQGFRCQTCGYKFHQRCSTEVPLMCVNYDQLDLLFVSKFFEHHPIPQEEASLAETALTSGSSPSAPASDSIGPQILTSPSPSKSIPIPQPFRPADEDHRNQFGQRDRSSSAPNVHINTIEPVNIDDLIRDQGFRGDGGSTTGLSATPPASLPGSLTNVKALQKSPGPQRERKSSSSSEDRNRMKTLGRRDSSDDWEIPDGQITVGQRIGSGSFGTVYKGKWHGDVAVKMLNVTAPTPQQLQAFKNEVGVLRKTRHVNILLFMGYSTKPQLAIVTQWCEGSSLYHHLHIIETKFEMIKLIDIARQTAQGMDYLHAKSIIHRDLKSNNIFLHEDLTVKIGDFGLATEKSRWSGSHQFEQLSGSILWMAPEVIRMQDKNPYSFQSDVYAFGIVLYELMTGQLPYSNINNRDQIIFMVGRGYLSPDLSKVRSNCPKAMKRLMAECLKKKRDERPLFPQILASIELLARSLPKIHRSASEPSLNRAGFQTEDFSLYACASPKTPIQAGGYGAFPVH", "assay": "Inhibition of recombinant full length human B-Raf V599E mutant (416 to end residues) using myelin basic protein as substrate incubated for 40 mins in presence of [gamma-33ATP] by radiometric scintillation counting analysis"}, "[12]": {"molecular_target": "Inhibitor of nuclear factor kappa-B kinase subunit alpha (Homo sapiens, UniProt O15111)", "assay": "Inhibition of recombinant full length human IKKalpha using peptide substrate after 40 mins by [gamma-33ATP]by radiometric scintillation counting analysis"}, "[13]": {"assay": "Inhibition of human PIP4K2"}, "[14]": {"molecular_target": "Calcium/calmodulin-dependent protein kinase type 1 (Homo sapiens, UniProt Q14012)", "assay": "Inhibition of recombinant human CaMK1alpha (2 to end residues) using calmodulin as substrate incubated for 40 mins in presence of [gamma-33ATP] by radiometric scintillation counting analysis"}, "[15]": {"molecular_target": "Hepatocyte growth factor receptor (Homo sapiens, UniProt P08581, D1228H)", "sequence (P08581 25-1390 D1228H limits assumed)": "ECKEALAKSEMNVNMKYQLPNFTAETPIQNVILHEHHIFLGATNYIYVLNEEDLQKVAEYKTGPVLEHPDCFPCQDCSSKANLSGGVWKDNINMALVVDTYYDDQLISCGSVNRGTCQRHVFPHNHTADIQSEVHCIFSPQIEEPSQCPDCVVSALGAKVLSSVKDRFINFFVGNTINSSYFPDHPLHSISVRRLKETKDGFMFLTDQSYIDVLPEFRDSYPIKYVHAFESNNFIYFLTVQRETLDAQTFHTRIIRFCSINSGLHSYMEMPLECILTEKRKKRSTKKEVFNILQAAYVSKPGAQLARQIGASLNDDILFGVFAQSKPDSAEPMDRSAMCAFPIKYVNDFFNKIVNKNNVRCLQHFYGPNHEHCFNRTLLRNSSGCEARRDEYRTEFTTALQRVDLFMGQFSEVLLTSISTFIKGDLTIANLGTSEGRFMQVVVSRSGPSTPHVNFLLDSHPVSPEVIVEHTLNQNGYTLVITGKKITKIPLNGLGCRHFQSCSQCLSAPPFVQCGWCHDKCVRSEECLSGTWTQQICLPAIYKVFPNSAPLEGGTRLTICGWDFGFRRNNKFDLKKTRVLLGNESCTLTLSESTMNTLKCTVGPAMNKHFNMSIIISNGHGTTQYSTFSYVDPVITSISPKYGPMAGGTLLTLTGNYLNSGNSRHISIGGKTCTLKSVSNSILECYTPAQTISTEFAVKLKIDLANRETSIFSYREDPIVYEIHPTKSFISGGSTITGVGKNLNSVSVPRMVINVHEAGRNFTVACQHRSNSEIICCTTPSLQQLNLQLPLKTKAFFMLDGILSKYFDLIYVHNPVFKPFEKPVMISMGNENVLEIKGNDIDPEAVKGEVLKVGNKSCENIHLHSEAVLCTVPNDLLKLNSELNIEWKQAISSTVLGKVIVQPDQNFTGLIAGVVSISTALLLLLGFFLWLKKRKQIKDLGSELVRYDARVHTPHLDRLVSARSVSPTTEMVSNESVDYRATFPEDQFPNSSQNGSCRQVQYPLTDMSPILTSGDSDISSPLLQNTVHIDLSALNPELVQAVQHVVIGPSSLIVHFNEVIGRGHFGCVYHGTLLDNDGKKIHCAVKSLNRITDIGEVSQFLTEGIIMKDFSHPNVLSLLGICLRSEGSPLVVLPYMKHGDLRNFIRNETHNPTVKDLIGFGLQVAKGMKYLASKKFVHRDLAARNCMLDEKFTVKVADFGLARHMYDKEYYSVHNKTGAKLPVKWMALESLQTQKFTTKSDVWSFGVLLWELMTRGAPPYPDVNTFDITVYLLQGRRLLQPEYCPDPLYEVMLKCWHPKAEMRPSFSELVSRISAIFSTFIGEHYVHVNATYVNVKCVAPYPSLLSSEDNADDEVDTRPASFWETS", "assay": "Inhibition of recombinant human MET A1209G/V1290L/D1246H triple mutant (974 to end residues) using KKKGQEEEYVFIE as substrate incubated for 40 mins in presence of [gamma-33ATP by radiometric scintillation counting analysis"}, "[16]": {"molecular_target": "Tyrosine-protein kinase ABL2 (Homo sapiens, UniProt P42684)", "assay": "Inhibition of human recombinant ARG (48 to end residues) using EAIYAAPFAKKK as substrate incubated for 40 mins in presence of [gamma-33ATP] by radiometric scintillation counting analysis"}, "[17]": {"molecular_target": "[Pyruvate dehydrogenase (acetyl-transferring)] kinase isozyme 4, mitochondrial (Homo sapiens, UniProt Q16654)", "sequence (Q16654 whole entry)": "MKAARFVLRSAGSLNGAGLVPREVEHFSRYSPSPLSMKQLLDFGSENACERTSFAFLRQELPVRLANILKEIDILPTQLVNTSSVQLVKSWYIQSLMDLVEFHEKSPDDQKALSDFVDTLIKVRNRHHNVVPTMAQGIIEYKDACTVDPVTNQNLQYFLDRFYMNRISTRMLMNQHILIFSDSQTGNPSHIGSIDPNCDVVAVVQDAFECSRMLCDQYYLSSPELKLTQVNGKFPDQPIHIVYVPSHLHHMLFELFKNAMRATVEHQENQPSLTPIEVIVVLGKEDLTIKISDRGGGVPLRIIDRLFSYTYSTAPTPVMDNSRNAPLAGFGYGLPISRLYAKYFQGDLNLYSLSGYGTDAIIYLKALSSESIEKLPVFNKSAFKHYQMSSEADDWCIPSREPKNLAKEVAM", "assay": "Inhibition of recombinant human full length PDHK4 using KKKYHGHSMSDPG as substrate incubated for 40 mins in presence of [gamma33P]ATP by radiometric scintillation counting analysis"}, "[18]": {"molecular_target": "cGMP-dependent protein kinase 2 (Homo sapiens, UniProt Q13237)", "assay": "Inhibition of recombinant full-length human PRKG2 using KKLRRTLSFAEPG as substrate incubated for 40 mins in presence of [gamma33P]ATP by radiometric scintillation counting analysis"}, "Insulin receptor": {"molecular_target": "Insulin receptor (Homo sapiens, UniProt P06213)", "assay": "Inhibition of human recombinant activated IR (1005 to 1310 residues) using KKSRGDYMTMQIG as substrate after 40 mins by [gamma-33ATP]by radiometric scintillation counting analysis"}, "[19]": {"molecular_target": "Mast/stem cell growth factor receptor Kit (Homo sapiens, UniProt P10721, V654A)", "assay": "Inhibition of recombinant human C-Kit V654A mutant (544 to end residues) using poly(Glu, Tyr) 4:1 as substrate incubated 40 mins in presence of [gamma-33ATP] by radiometric scintillation counting analysis"}, "[20]": {"molecular_target": "PI3-kinase p110-alpha/p85-alpha (Homo sapiens, UniProt P42336, E545K)", "sequence (P42336 whole entry E545K, looked up)": "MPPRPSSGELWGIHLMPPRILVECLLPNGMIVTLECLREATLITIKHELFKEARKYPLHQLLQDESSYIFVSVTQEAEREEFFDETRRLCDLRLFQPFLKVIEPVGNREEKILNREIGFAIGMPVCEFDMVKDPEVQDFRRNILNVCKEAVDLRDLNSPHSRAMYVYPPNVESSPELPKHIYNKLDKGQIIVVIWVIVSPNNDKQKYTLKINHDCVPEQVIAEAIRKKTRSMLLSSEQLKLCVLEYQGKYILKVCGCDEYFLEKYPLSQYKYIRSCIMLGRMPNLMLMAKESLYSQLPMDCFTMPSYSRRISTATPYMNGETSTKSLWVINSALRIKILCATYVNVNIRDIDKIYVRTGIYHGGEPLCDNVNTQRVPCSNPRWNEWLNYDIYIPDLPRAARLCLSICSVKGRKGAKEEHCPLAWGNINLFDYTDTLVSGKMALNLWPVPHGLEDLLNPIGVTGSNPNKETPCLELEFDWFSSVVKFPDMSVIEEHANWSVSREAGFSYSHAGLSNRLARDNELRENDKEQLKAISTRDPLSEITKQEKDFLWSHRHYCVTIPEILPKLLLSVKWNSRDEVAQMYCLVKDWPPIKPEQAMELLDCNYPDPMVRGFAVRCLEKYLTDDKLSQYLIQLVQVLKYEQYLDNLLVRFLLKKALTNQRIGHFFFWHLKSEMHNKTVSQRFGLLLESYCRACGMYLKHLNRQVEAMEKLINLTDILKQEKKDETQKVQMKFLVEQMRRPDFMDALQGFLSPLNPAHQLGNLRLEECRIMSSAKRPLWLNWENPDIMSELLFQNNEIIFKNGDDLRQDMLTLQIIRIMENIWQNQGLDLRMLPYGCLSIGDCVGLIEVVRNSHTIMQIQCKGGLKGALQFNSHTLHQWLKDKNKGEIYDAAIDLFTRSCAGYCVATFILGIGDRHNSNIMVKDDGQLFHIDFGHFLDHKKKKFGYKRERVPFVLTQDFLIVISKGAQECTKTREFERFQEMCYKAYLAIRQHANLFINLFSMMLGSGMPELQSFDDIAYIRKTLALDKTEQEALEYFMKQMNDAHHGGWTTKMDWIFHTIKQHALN", "assay": "Inhibition of recombinant human full length PI3K p110alpha/p85alpha E545K mutant using phosphatidylinositol 4,5-bisphosphate as substrate incubated for 40 mins in presence of [gamma33P]ATP by radiometric scintillation counting analysis", "format": "protein-complex assay"}, "Ephrin type-B receptor 1": {"molecular_target": "Ephrin type-B receptor 1 (Homo sapiens, UniProt P54762)", "assay": "Inhibition of recombinant human EphB1 (564 to end residues) using […] as substrate after 40 mins in presence of [gamma-33ATP] by radiometric scintillation counting analysis"}, "[21]": {"molecular_target": "Serine/threonine-protein kinase Sgk2 (Homo sapiens, UniProt Q9HBY8, S416D)", "sequence (Q9HBY8 as listed by the source S416D)": "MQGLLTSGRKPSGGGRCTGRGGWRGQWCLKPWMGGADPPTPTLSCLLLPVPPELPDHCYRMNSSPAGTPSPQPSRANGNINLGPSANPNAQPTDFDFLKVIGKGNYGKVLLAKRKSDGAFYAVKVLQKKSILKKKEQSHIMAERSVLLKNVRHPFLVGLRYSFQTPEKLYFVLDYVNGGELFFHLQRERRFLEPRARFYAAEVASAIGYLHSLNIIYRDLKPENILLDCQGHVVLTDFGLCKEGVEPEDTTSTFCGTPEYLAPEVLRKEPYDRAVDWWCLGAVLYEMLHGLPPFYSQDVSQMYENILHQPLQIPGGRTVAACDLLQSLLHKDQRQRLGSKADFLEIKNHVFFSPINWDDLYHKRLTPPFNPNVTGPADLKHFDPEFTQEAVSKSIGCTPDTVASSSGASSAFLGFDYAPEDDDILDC", "assay": "Inhibition of recombinant human SGK2 S416D mutant (54 to end residues) using GRPRTSSFAEGKK as substrate incubated for 40 mins in presence of [gamma33P]ATP by radiometric scintillation counting analysis"}, "[22]": {"molecular_target": "Serine/threonine-protein kinase tousled-like 1 (Homo sapiens, UniProt Q9UKI8)", "assay": "Inhibition of recombinant full-length human TLK1 using casein as substrate incubated for 40 mins in presence of [gamma33P]ATP by radiometric scintillation counting analysis"}},
  "data": [
    {"smiles": "CN(C)c1ccc(C(=O)Nc2cccc(NC(=O)COc3ccc4c(=O)ccoc4c3)c2)cc1", "values": [
      {"measurement": "IC50", "setting": "[1]", "result": "> 10", "unit": "µM"},
      {"measurement": "IC50", "setting": "[2]", "result": "> 10", "unit": "µM"},
      {"measurement": "IC50", "setting": "[3]", "result": "> 10", "unit": "µM"},
      {"measurement": "IC50", "setting": "[4]", "result": 0.014, "unit": "µM"},
      {"measurement": "IC50", "setting": "[5]", "result": "> 10", "unit": "µM"},
      {"measurement": "IC50", "setting": "Ephrin type-A receptor 7", "result": "> 10", "unit": "µM"},
      {"measurement": "IC50", "setting": "[6]", "result": "> 10", "unit": "µM"},
      {"measurement": "IC50", "setting": "[7]", "result": "> 10", "unit": "µM"},
      {"measurement": "IC50", "setting": "[8]", "result": "> 10", "unit": "µM"},
      {"measurement": "CLint scaled", "setting": "[9]", "result": 2260, "unit": "mL/min/kg"},
      {"measurement": "IC50", "setting": "[10]", "result": "> 10", "unit": "µM"},
      {"measurement": "IC50", "setting": "[11]", "result": "> 10", "unit": "µM"},
      {"measurement": "IC50", "setting": "[12]", "result": "> 10", "unit": "µM"},
      {"measurement": "IC50", "setting": "[13]", "result": "> 10", "unit": "µM"},
      {"measurement": "IC50", "setting": "[14]", "result": "> 10", "unit": "µM"},
      {"measurement": "IC50", "setting": "[15]", "result": "> 10", "unit": "µM"},
      {"measurement": "IC50", "setting": "[16]", "result": "> 10", "unit": "µM"},
      {"measurement": "IC50", "setting": "[17]", "result": "> 10", "unit": "µM"},
      {"measurement": "IC50", "setting": "[18]", "result": "> 10", "unit": "µM"},
      {"measurement": "IC50", "setting": "Insulin receptor", "result": "> 10", "unit": "µM"},
      {"measurement": "IC50", "setting": "[19]", "result": "> 10", "unit": "µM"},
      {"measurement": "IC50", "setting": "[20]", "result": "> 10", "unit": "µM"},
      {"measurement": "IC50", "setting": "Ephrin type-B receptor 1", "result": "> 10", "unit": "µM"},
      {"measurement": "IC50", "setting": "[21]", "result": "> 10", "unit": "µM"},
      {"measurement": "IC50", "setting": "[22]", "result": "> 10", "unit": "µM"}
    ]}
  ]
}
